# Target: T1, human mGlu2 receptor (Homo sapiens, UniProt Q14416)
# T1 construct: expressed in transfected cells; host or cells: HEK293
# Assay: FLIPR intracellular Ca2+ assay, potentiation of glutamate response in HEK293 clone expressing mGlu2 receptor, rGLAST and Galpha16
# Assay type: cell-based
# Settings: 1 μM glutamate added ten minutes after test compound, HEK293 cells with human mGlu2, rGLAST, Galpha16, read-out: EC50 values of potentiation effect to glutamate
# Method in brief: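 HEK293 cells stably expressing human mGlu2, rat GLAST and Gα16 were loaded with 2 µM Fluo-4 AM and intracellular Ca2+ read by FLIPR. Compound added alone (agonism), then with submaximal glutamate (e.g. 1 µM; potentiation). Background-subtracted peaks normalized to 100 µM glutamate response; EC50 from four-parameter fit.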
# T1 sequence (Q14416 19-872): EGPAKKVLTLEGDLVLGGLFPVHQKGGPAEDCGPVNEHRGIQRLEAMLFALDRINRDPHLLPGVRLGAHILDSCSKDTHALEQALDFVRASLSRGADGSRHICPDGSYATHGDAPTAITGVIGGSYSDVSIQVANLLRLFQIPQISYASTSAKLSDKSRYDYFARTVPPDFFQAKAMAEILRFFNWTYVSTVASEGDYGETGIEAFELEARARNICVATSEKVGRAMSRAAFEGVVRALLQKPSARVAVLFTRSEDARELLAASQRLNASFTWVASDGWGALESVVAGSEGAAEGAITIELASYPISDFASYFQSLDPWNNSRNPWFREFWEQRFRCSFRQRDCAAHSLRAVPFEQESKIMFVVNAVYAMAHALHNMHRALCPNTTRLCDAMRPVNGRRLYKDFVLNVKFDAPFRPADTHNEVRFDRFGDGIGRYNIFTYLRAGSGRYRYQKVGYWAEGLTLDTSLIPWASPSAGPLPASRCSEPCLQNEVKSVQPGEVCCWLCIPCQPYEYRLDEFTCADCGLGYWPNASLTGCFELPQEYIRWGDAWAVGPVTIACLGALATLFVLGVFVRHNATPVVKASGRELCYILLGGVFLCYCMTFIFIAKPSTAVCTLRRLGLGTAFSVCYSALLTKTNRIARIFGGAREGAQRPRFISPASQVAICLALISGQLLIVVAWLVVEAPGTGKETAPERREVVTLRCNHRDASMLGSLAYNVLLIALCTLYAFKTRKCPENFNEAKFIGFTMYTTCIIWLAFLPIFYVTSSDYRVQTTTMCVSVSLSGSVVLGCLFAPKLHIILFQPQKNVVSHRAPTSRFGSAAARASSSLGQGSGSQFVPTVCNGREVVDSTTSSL
row,SMILES,EC50 [µM]
1,"CCCC(=O)c1ccc(NCc2c[nH]cc2-c2ccccc2)cc1 [Example 523, 1-{4-[(4-Phenyl-1H-pyrrol-3-ylmethyl)-amino]-phenyl}-butan-1-one]",1 to 10
2,"CCCC(=O)c1ccc(NCc2ccncc2-c2ccccc2)cc1 [Example 524, 1-{4-[(3-Phenyl-pyridin-4-ylmethyl)-amino]-phenyl}-butan-1-one]",1 to 10
3,"CCCC(=O)c1ccc(NCc2cnccc2-c2ccccc2)cc1 [Example 525, 1-{4-[(4-Phenyl-pyridin-3-ylmethyl)-amino]-phenyl}-butan-1-one]",< 1
4,"CCCC(=O)c1ccc(NCc2cccnc2-c2ccccc2)cc1 [Example 526, 1-{4-[(2-Phenyl-pyridin-3-ylmethyl)-amino]-phenyl}-butan-1-one]",1 to 10
5,"CCCC(=O)c1ccc(NCc2cnn3ccccc23)cc1 [Example 529, 1-{4-[(Pyrazolo[1,5-a]pyridin-3-ylmethyl)-amino]-phenyl}-butan-1-one]",1 to 10
6,"CCCN1Cc2cc(OCc3c[nH]nc3-c3ccc(C(F)(F)F)cc3)ccc2C1=O [Example 531, 2-Propyl-5-[3-(4-trifluoromethyl-phenyl)-1H-pyrazol-4-ylmethoxy]-2,3-dihydro-isoindol-1-one]",< 1
7,"CCCN1Cc2cc(OCc3c[nH]nc3-c3cccc(C(F)(F)F)c3)ccc2C1=O [Example 532, 2-Propyl-5-[3-(3-trifluoromethyl-phenyl)-1H-pyrazol-4-ylmethoxy]-2,3-dihydro-isoindol-1-one]",< 1
8,"CCCN1Cc2cc(OCc3c[nH]nc3-c3ccc(F)cc3)ccc2C1=O [Example 533, 5-[3-(4-Fluorophenyl)-1H-pyrazol-4-ylmethoxy]-2-propyl-2,3-dihydro-isoindol-1-one]",< 1
9,"CCCN1Cc2cc(OCc3c[nH]nc3-c3ccc(Cl)cc3)ccc2C1=O [Example 534, 5-[3-(4-Chloro-phenyl)-1H-pyrazol-4-ylmethoxy]-2-propyl-2,3-dihydro-isoindol-1-one]",< 1
10,"CCCN1Cc2cc(OCc3c[nH]nc3-c3cccc(Cl)c3)ccc2C1=O [Example 535, 5-[3-(3-Chloro-phenyl)-1H-pyrazol-4-ylmethoxy]-2-propyl-2,3-dihydro-isoindol-1-one]",< 1
11,"CCCN1Cc2cc(OCc3c[nH]nc3-c3cccc(F)c3)ccc2C1=O [Example 536, 5-[3-(3-Fluorophenyl)-1H-pyrazol-4-ylmethoxy]-2-propyl-2,3-dihydro-isoindol-1-one]",< 1
12,"CCCN1Cc2cc(OCc3c[nH]nc3-c3ccccc3)ccc2C1=O [Example 537, 5-(3-Phenyl-1H-pyrazol-4-ylmethoxy)-2-propyl-2,3-dihydro-isoindol-1-one]",< 1
13,"O=C1c2ccc(OCc3c[nH]nc3-c3cccc(C(F)(F)F)c3)cc2CN1CCC(F)(F)F [Example 538, 5-[3-(3-Trifluoromethyl-phenyl)-1H-pyrazol-4-ylmethoxy]-2-(3,3,3-trifluoro-propyl)-2,3-dihydro-isoindol-1-one]",< 1
14,"O=C1c2ccc(OCc3c[nH]nc3-c3ccc(Cl)cc3)cc2CN1CCC(F)(F)F [Example 539, 5-[3-(4-Chloro-phenyl)-1H-pyrazol-4-ylmethoxy]-2-(3,3,3-trifluoro-propyl)-2,3-dihydro-isoindol-1-one]",< 1
15,"O=C1c2ccc(OCc3c[nH]nc3-c3ccc(F)cc3)cc2CN1CCC(F)(F)F [Example 540, 5-[3-(4-Fluorophenyl)-1H-pyrazol-4-ylmethoxy]-2-(3,3,3-trifluoro-propyl)-2,3-dihydro-isoindol-1-one]",< 1
16,"O=C1c2ccc(OCc3c[nH]nc3-c3cccc(F)c3)cc2CN1CCC(F)(F)F [Example 541, 5-[3-(3-Fluorophenyl)-1H-pyrazol-4-ylmethoxy]-2-(3,3,3-trifluoro-propyl)-2,3-dihydro-isoindol-1-one]",< 1
17,"O=C1c2ccc(OCc3c[nH]nc3-c3ccc(C(F)(F)F)cc3)cc2CN1CCC(F)(F)F [Example 542, 5-[3-(4-Trifluoromethyl-phenyl)-1H-pyrazol-4-ylmethoxy]-2-(3,3,3-trifluoro-propyl)-2,3-dihydro-isoindol-1-one]",< 1
18,"O=C1c2ccc(OCc3c[nH]nc3-c3ccccc3)cc2CN1CCC(F)(F)F [Example 543, 5-(3-Phenyl-1H-pyrazol-4-ylmethoxy)-2-(3,3,3-trifluoro-propyl)-2,3-dihydro-isoindol-1-one]",< 1
19,"CCCCN1Cc2cc(OCc3c[nH]nc3-c3ccc(C(F)(F)F)cc3)ccc2C1=O [Example 544, 2-Butyl-5-[3-(4-trifluoromethyl-phenyl)-1H-pyrazol-4-ylmethoxy]-2,3-dihydro-isoindol-1-one]",< 1
20,"CCCCN1Cc2cc(OCc3c[nH]nc3-c3cccc(C(F)(F)F)c3)ccc2C1=O [Example 545, 2-Butyl-5-[3-(3-trifluoromethyl-phenyl)-1H-pyrazol-4-ylmethoxy]-2,3-dihydro-isoindol-1-one]",< 1

row,SMILES,EC50 [µM]
1,"CCCCN1Cc2cc(OCc3c[nH]nc3-c3ccc(Cl)cc3)ccc2C1=O [Example 546, 2-Butyl-5-[3-(4-chloro-phenyl)-1H-pyrazol-4-ylmethoxy]-2,3-dihydro-isoindol-1-one]",< 1
2,"CCCCN1Cc2cc(OCc3c[nH]nc3-c3ccc(Cl)c(Cl)c3)ccc2C1=O [Example 547, 2-Butyl-5-[3-(3,4-dichloro-phenyl)-1H-pyrazol-4-ylmethoxy]-2,3-dihydro-isoindol-1-one]",< 1
3,"CCCCN1Cc2cc(OCc3c[nH]nc3-c3ccc(F)cc3)ccc2C1=O [Example 548, 2-Butyl-5-[3-(4-fluorophenyl)-1H-pyrazol-4-ylmethoxy]-2,3-dihydro-isoindol-1-one]",< 1
4,"CCCCN1Cc2cc(OCc3c[nH]nc3-c3cccc(Cl)c3)ccc2C1=O [Example 549, 2-Butyl-5-[3-(3-chloro-phenyl)-1H-pyrazol-4-ylmethoxy]-2,3-dihydro-isoindol-1-one]",< 1
5,"CCCCN1Cc2cc(OCc3c[nH]nc3-c3cccc(F)c3)ccc2C1=O [Example 550, 2-Butyl-5-[3-(3-fluorophenyl)-1H-pyrazol-4-ylmethoxy]-2,3-dihydro-isoindol-1-one]",< 1
6,"CCCCN1Cc2cc(OCc3c[nH]nc3-c3ccccc3)ccc2C1=O [Example 551, 2-Butyl-5-(3-phenyl-1H-pyrazol-4-ylmethoxy)-2,3-dihydro-isoindol-1-one]",< 1
7,"O=C1c2ccc(OCc3c[nH]nc3-c3ccc(C(F)(F)F)cc3)cc2CN1CCCC(F)(F)F [Example 552, 2-(4,4,4-Trifluoro-butyl)-5-[3-(4-trifluoromethyl-phenyl)-1H-pyrazol-4-ylmethoxy]-2,3-dihydro-isoindol-1-one]",< 1
8,"O=C1c2ccc(OCc3c[nH]nc3-c3ccccc3)cc2CN1CCCC(F)(F)F [Example 553, 5-(3-Phenyl-1H-pyrazol-4-ylmethoxy)-2-(4,4,4-trifluoro-butyl)-2,3-dihydro-isoindol-1-one]",< 1
9,"O=C1c2ccc(OCc3c[nH]nc3-c3ccc(Cl)c(Cl)c3)cc2CN1CCCC(F)(F)F [Example 554, 5-[3-(3,4-dichloro-phenyl)-1H-pyrazol-4-ylmethoxy]-2-(4,4,4-trifluoro-butyl)-2,3-dihydro-isoindol-1-one]",< 1
10,"CCN1Cc2cc(OCc3c[nH]nc3-c3cccc(C(F)(F)F)c3)ccc2C1=O [Example 558, 2-Ethyl-5-[3-(3-trifluoromethyl-phenyl)-1H-pyrazol-4-ylmethoxy]-2,3-dihydro-isoindol-1-one]",< 1
11,"CCN1Cc2cc(OCc3c[nH]nc3-c3ccc(F)cc3)ccc2C1=O [Example 559, 2-Ethyl-5-[3-(4-fluorophenyl)-1H-pyrazol-4-ylmethoxy]-2,3-dihydro-isoindol-1-one]",< 1
12,"CCN1Cc2cc(OCc3c[nH]nc3-c3cccc(F)c3)ccc2C1=O [Example 560, 2-Ethyl-5-[3-(3-fluorophenyl)-1H-pyrazol-4-ylmethoxy]-2,3-dihydro-isoindol-1-one]",< 1
13,"CCN1Cc2cc(OCc3c[nH]nc3-c3ccc(Cl)cc3)ccc2C1=O [Example 562, 5-[3-(4-Chloro-phenyl)-1H-pyrazol-4-ylmethoxy]-2-ethyl-2,3-dihydro-isoindol-1-one]",< 1
14,"CCN1Cc2cc(OCc3c[nH]nc3-c3ccccc3)ccc2C1=O [Example 563, 2-Ethyl-5-(3-phenyl-1H-pyrazol-4-ylmethoxy)-2,3-dihydro-isoindol-1-one]",< 1
15,"O=C1c2ccc(OCc3c[nH]nc3-c3ccc(C(F)(F)F)cc3)cc2CN1CCBr [Example 564, 2-(2-Bromo-ethyl)-5-[3-(4-trifluoromethyl-phenyl)-1H-pyrazol-4-ylmethoxy]-2,3-dihydro-isoindol-1-one]",< 1
16,"O=C1c2ccc(OCc3c[nH]nc3-c3cccc(C(F)(F)F)c3)cc2CN1CCBr [Example 565, 2-(2-Bromo-ethyl)-5-[3-(3-trifluoromethyl-phenyl)-1H-pyrazol-4-ylmethoxy]-2,3-dihydro-isoindol-1-one]",< 1
17,"O=C1c2ccc(OCc3c[nH]nc3-c3ccc(C(F)(F)F)cc3)cc2CN1CC(F)F [Example 566, 2-(2,2-Difluoro-ethyl)-5-[3-(4-trifluoromethyl-phenyl)-1H-pyrazol-4-ylmethoxy]-2,3-dihydro-isoindol-1-one]",< 1
18,"O=C1c2ccc(OCc3c[nH]nc3-c3ccccc3)cc2CN1CC(F)F [Example 567, 2-(2,2-Difluoro-ethyl)-5-(3-phenyl-1H-pyrazol-4-ylmethoxy)-2,3-dihydro-isoindol-1-one]",< 1
19,"O=C1c2ccc(OCc3c[nH]nc3-c3ccc(C(F)(F)F)cc3)cc2CN1CC(F)(F)F [Example 568, 2-(2,2,2-Trifluoro-ethyl)-5-[3-(4-trifluoromethyl-phenyl)-1H-pyrazol-4-ylmethoxy]-2,3-dihydro-isoindol-1-one]",< 1

# — patent publication US9242933B2 (AbbVie Deutschland GmbH & Co. KG, priority 2007, dated 2016)
